Residue numbers refer to the chain shown, from its start. pIC50: −log10 of the molar value. One block for each compound: values may come before it.
Key:
CRISPR KI Y537S = target: T1, CRISPR KI Y537S (Homo sapiens, UniProt P03372, Y537S); test: Luciferase assay, CRISPR KI Y537S clones; format: cell-based; design: concentration or dose not given beside the values; details: for CRISPR KI (% Inhibition) Y537S cl. 4: clone 4; for CRISPR KI (% Inhibition) Y537S cl. 24: clone 24
T1 construct: endogenous in cells; host or cells: CRISPR knock-in clones (cl. 4, cl. 24)
T1 sequence (P03372 1-595 Y537S): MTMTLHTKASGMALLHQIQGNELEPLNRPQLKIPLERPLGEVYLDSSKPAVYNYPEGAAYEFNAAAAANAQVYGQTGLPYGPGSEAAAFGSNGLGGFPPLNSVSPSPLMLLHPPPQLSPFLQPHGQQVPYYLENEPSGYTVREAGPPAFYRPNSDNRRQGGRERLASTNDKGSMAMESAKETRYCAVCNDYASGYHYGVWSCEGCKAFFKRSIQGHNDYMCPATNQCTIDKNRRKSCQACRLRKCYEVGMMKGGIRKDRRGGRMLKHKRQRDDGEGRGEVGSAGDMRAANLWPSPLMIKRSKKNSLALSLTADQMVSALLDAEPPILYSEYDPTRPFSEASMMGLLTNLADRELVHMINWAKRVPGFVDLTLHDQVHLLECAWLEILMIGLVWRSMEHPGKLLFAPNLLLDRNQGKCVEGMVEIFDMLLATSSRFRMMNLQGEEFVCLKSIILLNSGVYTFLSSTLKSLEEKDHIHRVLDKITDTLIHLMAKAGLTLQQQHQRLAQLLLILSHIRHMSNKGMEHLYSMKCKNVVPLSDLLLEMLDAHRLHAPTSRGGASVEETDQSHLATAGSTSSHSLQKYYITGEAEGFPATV
Description: (§1) Luciferase assays were performed to determine the efficacy of the example compounds at inhibiting ER or its mutants' ability to activate transcription of genes.
(§2) Cells were plated at a density of 0.15×10^6 per well of 24 well plates one day prior to transfection. Cells were transfected with 125 ng (per well) of HA-ERα wild type or mutants, 315 ng (per well) of 3×-ERE-TATA-Luciferase reporter and 50 ng (per well) of pRL-TK Renilla Luciferase plasmid, using Xtremegene (Roche). The cells were treated with the various compounds or Fulvestrant at the indicated doses a day after transfection for 24 hours and luciferase activities were determined using the Dual-Luciferase® Reporter Assay System (Promega) according to manufacturer's instructions. Luciferase bioluminescence measurements were performed with the Veritas™ Microplate Luminometer (Promega). All experiments were conducted in triplicate and the Firefly luciferase activity was normalized with the Renilla luciferase activity of each sample.

[1] = target: T2, full length human estrogen receptor a (Homo sapiens, UniProt P03372); test: Competitive radiometric binding assay (RBA), tritiated estradiol tracer; details: relative to estradiol = 100; average SD of 2-3 determinations
T2 construct: purified, full-length human estrogen receptor a from Invitrogen; purchased Invitrogen
T2 sequence (P03372 1-595): T1 sequence (P03372 1-595 Y537S) with S537Y
Description: Tritiated estradiol was obtained from Perkin Elmer and purified, full-length human estrogen receptor a from Invitrogen.
Competitive radiometric binding assays (RBA) were performed on 96-well microtiter filter plates (Millipore), using full length human estrogen receptor a, with tritiated estradiol as tracer, as previously described (Carlson K E, Choi I, Gee A, Katzenellenbogen B S, Katzenellenbogen J A. Altered ligand binding properties and enhanced stability of a constitutively active estrogen receptor: evidence that an open pocket conformation is required for ligand interaction. Biochemistry 1997, 36(48), 14897-14905). After incubation on ice for 18-24 h, ERα-bound tracer was absorbed onto hydroxyapatite (BioRad), washed with buffer, and measured by scintillation counting. RBA values are the average SD of 2-3 determinations.

MCF7 = test: Luciferase assay in MCF7; format: cell-based; design: concentration or dose not given beside the values
Description: as §1, §2

[2] = Cell proliferation assay (WST-1), 6-day exposure; format: cell-based; details: 144 h, read-out: Antiproliferation IC50
Description: Cell proliferation assay: WST-1 assay (Roche, Basel, Switzerland) was used to quantify cell viability after a 6-day exposure to compounds, as described in Gong et al. Mol. Cell. Endocrinol. 2016, 437, 190-200. Absorbance was measured at 450 nm using a VICTOR X5 PerkinElmer 2030 Multilabel Plate Reader, and cell proliferation values represent signal from compound-treated samples relative to vehicle-treated controls. All assays were performed in triplicate, and the values shown are the average SD of 2-3 independent experiments.

SMILES: O=C(NCCCCOc1ccc(C(=C2C3CC4CC(C3)CC2C4)c2ccc(O)cc2)cc1)C12CC3CC(CC(C3)C1)C2 [Example 6, N-(4-(4-(Adamantan-2-ylidene(4-hydroxyphenyl)methyl)phenoxy)-butyl)adamantane-1-carboxamide]
CRISPR KI (% Inhibition) Y537S cl. 4 (CRISPR KI Y537S): −187%
CRISPR KI (% Inhibition) Y537S cl. 24 (CRISPR KI Y537S): −108%
RBA (estradiol = 100) [1]: 11 ± 3
MCF7 (% Inhibition) (MCF7): 70%
pIC50 [2]: 7.89

SMILES: O=C(NCCCCOc1ccc(C(=C2C3CC4CC(C3)CC2C4)c2ccc(O)cc2)cc1)C12CC3CC(CC1C3)C2 [Example 8, N-(4-(4-((Adamantan-2-ylidene)(4-hydroxyphenyl)methyl)phenoxy)butyl)-hexahydro-2,5-methanopentalene-3a(1H)-carboxamide]
CRISPR KI (% Inhibition) Y537S cl. 4 (CRISPR KI Y537S): −387%
CRISPR KI (% Inhibition) Y537S cl. 24 (CRISPR KI Y537S): −249%
RBA (estradiol = 100) [1]: 17 ± 2
MCF7 (% Inhibition) (MCF7): 77%
pIC50 [2]: 7.92

SMILES: CC12CC3CC(C)(C1)CC(C(=O)NCCCCOc1ccc(C(=C4C5CC6CC(C5)CC4C6)c4ccc(O)cc4)cc1)(C3)C2 [Example 7, N-(4-(4-(Adamantan-2-ylidene(4-hydroxyphenyl)methyl)phenoxy)butyl)-3,5-dimethyladamantane-1-carboxamide]
CRISPR KI (% Inhibition) Y537S cl. 4 (CRISPR KI Y537S): −70%
CRISPR KI (% Inhibition) Y537S cl. 24 (CRISPR KI Y537S): −64%
RBA (estradiol = 100) [1]: 6.0 ± 0.1
MCF7 (% Inhibition) (MCF7): 53%
pIC50 [2]: 8.30

SMILES: CC(C)(C)OC(=O)N[C@@H](Cc1c[nH]c2ccccc12)C(=O)NCCCCOc1ccc(C(=C2C3CC4CC(C3)CC2C4)c2ccc(O)cc2)cc1 [Example 1, (S)-tert-Butyl (1-((4-(4-(adamantan-2-ylidene(4-hydroxyphenyl)methyl)-phenoxy)butyl)amino)-3-(1H-indol-3-yl)-1-oxopropan-2-yl)carbamate]
CRISPR KI (% Inhibition) Y537S cl. 4 (CRISPR KI Y537S): −74%
CRISPR KI (% Inhibition) Y537S cl. 24 (CRISPR KI Y537S): −34%
RBA (estradiol = 100) [1]: 20 ± 6
MCF7 (% Inhibition) (MCF7): 71%
pIC50 [2]: 7.80

SMILES: O=C(NCCCCOc1ccc(C(=C2C3CC4CC(C3)CC2C4)c2ccc(O)cc2)cc1)[C@H]1C[C@@H]2C=C[C@H]1C2 [Example 9, (1R, 2S, 4R)—N-(4-(4-(Adamantan-2-ylidene(4-hydroxyphenyl)methyl)phenoxy)-butyl)bicyclo[2.2.1]hept-5-ene-2-carboxamide]
CRISPR KI (% Inhibition) Y537S cl. 4 (CRISPR KI Y537S): −369%
CRISPR KI (% Inhibition) Y537S cl. 24 (CRISPR KI Y537S): −384%
RBA (estradiol = 100) [1]: 37 ± 0.3
MCF7 (% Inhibition) (MCF7): 73%
pIC50 [2]: 8.05

Further lines, with some results ahead:

CRISPR KI (% Inhibition) Y537S cl. 4 (CRISPR KI Y537S): −62%
CRISPR KI (% Inhibition) Y537S cl. 24 (CRISPR KI Y537S): −10%
RBA (estradiol = 100) [1]: 28 ± 6
SMILES: O=C(NCCCCOc1ccc(C(=C2C3CC4CC(C3)CC2C4)c2ccc(O)cc2)cc1)C1CCCCC1 [Example 11, N-(4-(4-(Adamantan-2-ylidene(4-hydroxyphenyl)methyl)phenoxy)butyl)-cyclohexanecarboxamide]
MCF7 (% Inhibition) (MCF7): 84%
pIC50 [2]: 9.22

CRISPR KI (% Inhibition) Y537S cl. 4 (CRISPR KI Y537S): −232%
CRISPR KI (% Inhibition) Y537S cl. 24 (CRISPR KI Y537S): −199%
RBA (estradiol = 100) [1]: 30 ± 5
SMILES: O=C(NCCCCOc1ccc(C(=C2C3CC4CC(C3)CC2C4)c2ccc(O)cc2)cc1)C1CCCCCC1 [Example 12, N-(4-(4-(Adamantan-2-ylidene(4-hydroxyphenyl)methyl)phenoxy)butyl)-cycloheptanecarboxamide]
MCF7 (% Inhibition) (MCF7): 82%
pIC50 [2]: 8.30

CRISPR KI (% Inhibition) Y537S cl. 4 (CRISPR KI Y537S): −342%
CRISPR KI (% Inhibition) Y537S cl. 24 (CRISPR KI Y537S): −421%
RBA (estradiol = 100) [1]: 10 ± 0.4
SMILES: O=C(NCCCCOc1ccc(C(=C2C3CC4CC(C3)CC2C4)c2ccc(O)cc2)cc1)[C@H]1CC[C@H](C(F)(F)F)CC1 [Example 14, (trans)-N-(4-(4-(Adamantan-2-ylidene(4-hydroxyphenyl)methyl)phenoxy)-butyl)-4-(trifluoromethyl)cyclohexanecarboxamide]
MCF7 (% Inhibition) (MCF7): 72%
pIC50 [2]: 9.30

CRISPR KI (% Inhibition) Y537S cl. 4 (CRISPR KI Y537S): −334%
CRISPR KI (% Inhibition) Y537S cl. 24 (CRISPR KI Y537S): −327%
RBA (estradiol = 100) [1]: 30 ± 0.1
SMILES: O=C(NCCCCOc1ccc(C(=C2C3CC4CC(C3)CC2C4)c2ccc(O)cc2)cc1)C1CCC(F)(F)CC1 [Example 13, N-(4-(4-(Adamantan-2-ylidene(4-hydroxyphenyl)methyl)phenoxy)butyl)-4,4-difluorocyclohexanecarboxamide]
MCF7 (% Inhibition) (MCF7): 80%
pIC50 [2]: 8.40

CRISPR KI (% Inhibition) Y537S cl. 24 (CRISPR KI Y537S): −496%
RBA (estradiol = 100) [1]: 70 ± 1
SMILES: O=C(NCCCCOc1ccc(C(=C2C3CC4CC(C3)CC2C4)c2ccc(O)cc2)cc1)C1CCC1 [Example 10, N-(4-(4-(Adamantan-2-ylidene(4-hydroxyphenyl)methyl)phenoxy)butyl)-cyclobutanecarboxamide]
MCF7 (% Inhibition) (MCF7): 66%
pIC50 [2]: 8.52
